Laboratory results from US20210255193A1, “LYSINE REACTIVE PROBES AND USES THEREOF” (The Scripps Research Institute, priority 2017, published 2021).

Assays:
Assay in all cases: competitive isoTOP-ABPP
Type in all cases: binding
[1] = target: T1, SRP54 Signal recognition particle 54 kDa protein (Homo sapiens, UniProt P61011); design: key to isoTOP-ABPP reactivity ratio at lysine P61011_K81: R = MS1 peak area ratio, DMSO (heavy) / compound-treated (light); capped at 20; conditions: for isoTOP-ABPP ratio (R) at liganded lysine P61011_K81 / isoTOP-ABPP reactivity ratio at lysine P61011_K81: 50 uM, in vitro; for isoTOP-ABPP ratio (R) at liganded lysine P61011_K81: sol, 231; for isoTOP-ABPP reactivity ratio at lysine P61011_K81: 231 sol
T1 construct: isoTOP-ABPP experiments performed in cell lysates (in vitro); endogenous in cells; host or cells: soluble proteome of human cancer cell lines (MDA-MB-231, Ramos, Jurkat)
T1 sequence (P61011 whole entry): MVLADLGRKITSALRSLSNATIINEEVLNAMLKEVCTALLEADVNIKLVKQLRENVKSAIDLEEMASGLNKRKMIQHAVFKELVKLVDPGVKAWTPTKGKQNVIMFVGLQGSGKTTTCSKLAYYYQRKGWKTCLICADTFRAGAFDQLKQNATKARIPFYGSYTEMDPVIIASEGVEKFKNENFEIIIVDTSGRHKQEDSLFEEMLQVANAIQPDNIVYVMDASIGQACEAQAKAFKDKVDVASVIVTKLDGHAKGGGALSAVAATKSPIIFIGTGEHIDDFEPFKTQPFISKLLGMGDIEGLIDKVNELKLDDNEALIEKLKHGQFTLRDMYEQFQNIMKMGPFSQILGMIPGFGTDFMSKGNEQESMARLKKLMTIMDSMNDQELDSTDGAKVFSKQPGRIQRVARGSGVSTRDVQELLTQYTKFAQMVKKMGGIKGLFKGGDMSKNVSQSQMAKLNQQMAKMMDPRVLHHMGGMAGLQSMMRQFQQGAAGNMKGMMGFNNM
Description: (§1) In vitro covalent fragment treatment for isoTOP-ABPP. All compounds were made up as solutions in DMSO (100×) and were used at a final concentration of 50 μM for activated esters and 100 μM for guanidinylating agents. For each profiling sample, 0.5 ml of lysate was treated with 5 μl of the 100× compound stock solution or 5 μl of DMSO. Samples were treated with activated esters for
(§2) STP-alkyne labeling and click chemistry. For concentration-dependent reactivity measurements by isoTOP-ABPP, 0.5 ml proteome aliquots were treated at ambient temperature with 1 mM STP-alkyne 1 (5 μl of 100 mM stock in DMSO) and 0.1 mM STP alkyne 1 (5 μl of 10 mM stock in DMSO), respectively. For competitive isoTOP-ABPP, after in vitro fragment treatment (detailed above), the samples were labeled for 1 h at ambient temperature with 0.1 mM STP-alkyne 1 (5 μl of 10 mM stock in DMSO). Samples were conjugated by copper-mediated azide-alkyne cycloaddition (CuAAC) to either the light (1 mM STP-alkyne or fragment treated) or heavy (0.1 mM STP-alkyne or DMSO treated) TEV tags (10 μl of 5 mM stocks in DMSO, final concentration=100 μM) using tris(2-carboxyethyl)phosphine hydrochloride
(§3) R value calculation and processing. The ratios of light and heavy MS1 peaks for each unique peptide were quantified with a CIMAGE software using default parameters (3 MS1 acquisitions per peak and signal to noise threshold set to 2.5). For reactivity measurements by isoTOP-ABPP, the R value was calculated from the ratio of MS1 peak areas, comparing the 1 mM STP alkyne sample (light TEV tag) with the 0.1 mM STP alkyne sample (heavy TEV tag). For competitive isoTOP-ABPP, the R value was calculated from the ratio of MS1 peak areas, comparing the DMSO treated sample (heavy TEV tag) with the compound treated sample (light TEV tag). […] Ratios for unique peptide entries are calculated for each experiment; overlapping peptides with the same modified lysine (for example, different charge states, MudPIT chromatographic steps or tryptic termini) are grouped together and the median ratio is reported as the final ratio (R). The peptide ratios reported by CIMAGE were further filtered to ensure the removal or correction of low-quality ratios in each individual data set. The quality filters applied were the following: removal of half tryptic peptides; for ratios with high standard deviations from the median (90% of the median or above) the lowest ratio was taken instead of the median; removal of peptides with R=20 and only a single MS2 event triggered during the elution of the parent ion; manual annotation of all the peptides with ratios of 20, removing any peptides with low quality elution profiles that remained after the previous curation steps (only done for competitive isoTOP-ABPP).
(§4) Cross-data processing for fragment screening. For compound treated samples, biological replicates of the same condition were averaged, if the standard deviation was below 60% of the mean; otherwise, for lysines with at least one R value <4 for a particular compound, the lowest value of the ratio set was taken. For lysines, where all R values for a particular compound were ≥4, the average was reported. For peptides containing several possible modified lysines, the lysine with the highest number of quantification events was used for analysis and the remaining, redundant peptides were reported as alternative modification sites. Peptides included in the aggregate dataset (those used for further bioinformatics and statistical analyses) were required to have been quantified in 2 experiments for competitive isoTOP-ABPP. Lysines were categorized as liganded, if they had at least one ratio R≥4 (hit fragments). For liganded lysines with R=20 for all liganding events, lysines were required to have been quantified with R=20 in two separate experiments and were further required to have been quantified with R<20 in one additional experiment.

[2] = target: T2, ACBD3 Golgi resident protein GCP60 (Homo sapiens, UniProt Q9H3P7); design: key to isoTOP-ABPP reactivity ratio at lysine Q9H3P7_K117: R = MS1 peak area ratio, DMSO (heavy) / compound-treated (light); conditions: for isoTOP-ABPP ratio (R) at liganded lysine Q9H3P7_K117: sol, 231
T2 construct: isoTOP-ABPP experiments performed in cell lysates (in vitro); endogenous in cells; host or cells: soluble proteome of human cancer cell lines (MDA-MB-231; Ramos and Jurkat also prepared)
T2 sequence (Q9H3P7 1-528): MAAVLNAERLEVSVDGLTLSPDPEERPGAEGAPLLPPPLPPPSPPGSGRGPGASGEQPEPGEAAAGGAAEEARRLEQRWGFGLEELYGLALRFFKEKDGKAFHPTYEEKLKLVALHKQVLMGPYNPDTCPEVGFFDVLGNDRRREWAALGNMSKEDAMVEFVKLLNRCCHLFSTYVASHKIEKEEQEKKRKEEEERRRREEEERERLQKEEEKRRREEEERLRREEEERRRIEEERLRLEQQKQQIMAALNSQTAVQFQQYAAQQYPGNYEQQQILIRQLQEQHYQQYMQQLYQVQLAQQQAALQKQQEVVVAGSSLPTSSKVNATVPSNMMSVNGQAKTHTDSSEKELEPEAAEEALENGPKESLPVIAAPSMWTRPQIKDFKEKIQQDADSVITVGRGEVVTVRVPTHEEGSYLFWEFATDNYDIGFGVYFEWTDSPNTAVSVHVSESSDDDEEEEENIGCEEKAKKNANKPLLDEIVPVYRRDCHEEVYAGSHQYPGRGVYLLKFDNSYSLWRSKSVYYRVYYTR
Description: as §1, §2, §3, §4

[3] = target: T3, PSME3 Proteasome activator complex subunit 3 (Homo sapiens, UniProt P61289); design: key to isoTOP-ABPP reactivity ratio at lysine P61289_K237: R = MS1 peak area ratio, DMSO (heavy) / compound-treated (light); key to isoTOP-ABPP reactivity ratio at lysine P61289_K12: R = MS1 peak area ratio, DMSO (heavy) / compound-treated (light); capped at 20; conditions: for isoTOP-ABPP ratio (R) at liganded lysine P61289_K12 / isoTOP-ABPP ratio (R) at liganded lysine P61289_K237: sol, 231
T3 construct: isoTOP-ABPP experiments performed in cell lysates (in vitro); endogenous in cells; host or cells: soluble proteome of human cancer cell lines (MDA-MB-231, Ramos, Jurkat)
T3 sequence (P61289 whole entry, one chain of several): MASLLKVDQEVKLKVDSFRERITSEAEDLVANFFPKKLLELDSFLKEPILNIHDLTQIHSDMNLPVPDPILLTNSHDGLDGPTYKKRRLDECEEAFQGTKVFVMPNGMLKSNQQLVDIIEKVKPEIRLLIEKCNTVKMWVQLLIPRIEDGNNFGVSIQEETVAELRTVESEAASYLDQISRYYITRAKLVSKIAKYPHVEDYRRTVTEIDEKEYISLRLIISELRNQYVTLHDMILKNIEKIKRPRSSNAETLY
Description: as §1, §2, §3, §4

Compound | isoTOP-ABPP ratio (R) at liganded lysine P61011_K81 [1] | isoTOP-ABPP ratio (R) at liganded lysine Q9H3P7_K117 ([2]; 50 uM, in vitro) | isoTOP-ABPP ratio (R) at liganded lysine P61289_K12 ([3]; 50 uM, in vitro) | isoTOP-ABPP ratio (R) at liganded lysine P61289_K237 ([3]; 50 uM, in vitro) | isoTOP-ABPP reactivity ratio at lysine P61289_K12 ([3]; 50 uM, 231 sol, in vitro) | isoTOP-ABPP reactivity ratio at lysine P61289_K237 ([3]; 50 uM, 231 sol, in vitro) | isoTOP-ABPP reactivity ratio at lysine P61011_K81 [1] | isoTOP-ABPP reactivity ratio at lysine Q9H3P7_K117 ([2]; 50 uM, 231 sol, in vitro) | further results
CC(=O)Oc1ccc([N+](=O)[O-])cc1[N+](=O)[O-] [fragment 43, 2,4-Dinitrophenyl acetate] | 20.0 | 1.2 | – | – | – | – | – | – | –
O=C(CCc1ccc2c(c1)OCO2)Oc1ccc([N+](=O)[O-])cc1[N+](=O)[O-] [fragment 45, 2,4-Dinitrophenyl 3-(benzo[d][1,3]dioxol-5-yl)propanoate] | – | – | – | – | – | – | – | – | isoTOP-ABPP ratio, lysine P61289_K12 ([3]; 50 uM_231_sol_in vitro): 2.0; isoTOP-ABPP ratio, lysine P61289_K237 ([3]; 50 uM_231_sol_in vitro): 1.6; isoTOP-ABPP ratio, lysine P61011_K81 ([1]; 50 uM_231_sol_in vitro): 1.0; isoTOP-ABPP ratio, lysine Q9H3P7_K117 ([2]; 50 uM_231_sol_in vitro): 1.1
O=C(Oc1ccc([N+](=O)[O-])cc1[N+](=O)[O-])c1ccc2ccccc2n1 [fragment 35, 2,4-Dinitrophenyl quinoline-2-carboxylate] | 0.8 | 1.3 | 0.7 | 0.8 | – | – | – | – | –
CCn1cc(C(=O)Oc2c(F)c(F)c(F)c(F)c2F)c(=O)c2ccc(C)nc21 [fragment 28, Pentafluorophenyl 1-ethyl-7-methyl-4-oxo-1,4-dihydro-1,8-naphthyridine-3-carboxylate] | – | – | – | – | 1.0 | 0.6 | 0.8 | 1.1 | –
CC(C)(C)OC(=O)NCCCC(=O)Oc1ccc([N+](=O)[O-])cc1[N+](=O)[O-] [fragment 41, 2,4-Dinitrophenyl 4-((tert-butoxycarbonyl)amino)butanoate] | 1.0 | 1.2 | 3.5 | 2.2 | – | – | – | – | –
O=C(Oc1c(F)c(F)c(F)c(F)c1F)c1ccc2ccccc2n1 [fragment 25, Pentafluorophenyl quinoline-2-carboxylate] | – | – | – | – | 0.9 | 0.5 | 0.8 | 1.7 | –
Cn1cc(CC(=O)Oc2ccc([N+](=O)[O-])cc2[N+](=O)[O-])c2ccccc21 [fragment 32, 2,4-Dinitrophenyl 2-(1-methyl-1H-indol-3-yl)acetate] | – | – | – | – | 4.7 | 5.1 | 20.0 | 1.3 | –
COc1cc(CCC(=O)Oc2c(F)c(F)c(F)c(F)c2F)cc(OC)c1OC [fragment 23, Pentafluorophenyl 3-(3,4,5-trimethoxyphenyl)propanoate] | – | – | – | – | – | – | – | – | R value (DMSO/fragment) for probe 1 labeling ([3]; P61289_K237, 50 uM, 231 sol, in vitro): 0.5; R value (DMSO/fragment) for probe 1 labeling ([2]; Q9H3P7_K117, 50 uM, 231 sol, in vitro): 1.2
O=C(Oc1ccc([N+](=O)[O-])cc1[N+](=O)[O-])c1ccc(Oc2ccccc2)cc1 [fragment 39, 2,4-Dinitrophenyl 4-phenoxybenzoate] | 0.9 | 0.9 | 0.9 | 0.9 | – | – | – | – | –
